Source: ChEMBL document CHEMBL5465560, “Selectivity Literature for EUbOPEN Chemogenomic Library” (2024)

Experiments:
[1] = biological target: T1, Mitogen-activated protein kinase kinase kinase kinase 3 (Homo sapiens) (UniProt Q8IVH8); assay: Selectivity interaction (KinomeScan (DiscoverX)) EUB0000666a MAP4K3; conditions: at 10 µM
T1 sequence (whole entry): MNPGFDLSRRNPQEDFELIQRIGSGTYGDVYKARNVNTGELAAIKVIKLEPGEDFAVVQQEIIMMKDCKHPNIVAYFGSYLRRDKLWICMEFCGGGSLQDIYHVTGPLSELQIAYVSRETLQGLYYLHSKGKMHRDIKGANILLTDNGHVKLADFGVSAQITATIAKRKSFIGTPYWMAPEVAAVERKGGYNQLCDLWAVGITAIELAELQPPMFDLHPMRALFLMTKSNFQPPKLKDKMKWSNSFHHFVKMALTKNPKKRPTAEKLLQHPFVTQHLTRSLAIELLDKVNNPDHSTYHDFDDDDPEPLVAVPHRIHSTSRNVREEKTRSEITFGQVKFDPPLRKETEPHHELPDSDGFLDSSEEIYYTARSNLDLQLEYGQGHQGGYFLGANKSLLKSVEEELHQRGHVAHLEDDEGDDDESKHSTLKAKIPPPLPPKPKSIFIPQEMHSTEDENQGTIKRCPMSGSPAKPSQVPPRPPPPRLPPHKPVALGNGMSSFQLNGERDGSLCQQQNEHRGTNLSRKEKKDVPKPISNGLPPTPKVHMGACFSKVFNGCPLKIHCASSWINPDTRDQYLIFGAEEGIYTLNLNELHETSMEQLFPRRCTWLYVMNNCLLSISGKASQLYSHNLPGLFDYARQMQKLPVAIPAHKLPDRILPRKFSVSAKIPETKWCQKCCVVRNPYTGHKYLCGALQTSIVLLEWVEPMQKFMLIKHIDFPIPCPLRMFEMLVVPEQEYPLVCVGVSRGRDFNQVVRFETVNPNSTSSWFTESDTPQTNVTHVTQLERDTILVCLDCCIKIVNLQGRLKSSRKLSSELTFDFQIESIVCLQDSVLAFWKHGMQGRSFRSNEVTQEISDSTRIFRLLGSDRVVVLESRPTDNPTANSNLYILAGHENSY

[2] = biological target: 5'-AMP-activated protein kinase catalytic subunit alpha-1 (Homo sapiens, UniProt Q13131); assay: Selectivity interaction (ActivX KiNativ screen (kinase selectivity in THP-1 cell lysates)) EUB0000639a PRKAA1; assay type: subcellular; conditions: lysate, at 0.2 µM
5'-AMP-activated protein kinase catalytic subunit alpha-1, sequence (Q13131 whole entry, looked up): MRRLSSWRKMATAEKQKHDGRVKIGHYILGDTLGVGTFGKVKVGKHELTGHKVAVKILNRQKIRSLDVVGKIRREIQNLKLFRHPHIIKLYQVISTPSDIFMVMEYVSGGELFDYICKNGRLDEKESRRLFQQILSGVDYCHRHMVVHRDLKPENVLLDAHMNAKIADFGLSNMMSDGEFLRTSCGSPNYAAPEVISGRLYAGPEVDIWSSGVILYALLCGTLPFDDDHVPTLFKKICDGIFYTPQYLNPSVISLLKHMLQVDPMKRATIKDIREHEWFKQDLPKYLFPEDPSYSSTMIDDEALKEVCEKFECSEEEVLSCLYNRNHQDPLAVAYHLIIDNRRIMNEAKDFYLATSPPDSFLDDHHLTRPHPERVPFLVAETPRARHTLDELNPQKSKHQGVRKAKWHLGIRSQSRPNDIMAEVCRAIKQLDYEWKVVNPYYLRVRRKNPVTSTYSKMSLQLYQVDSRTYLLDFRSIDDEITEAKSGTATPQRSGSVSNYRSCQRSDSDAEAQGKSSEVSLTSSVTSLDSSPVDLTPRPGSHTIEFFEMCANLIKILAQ

[3] = biological target: Neuronal acetylcholine receptor; alpha4/beta2 (Homo sapiens) (UniProt P17787+P43681); assay: Selectivity interaction (Panel of non-epigenetic targets (kinases, GPCRs, ion channels, and transporters, Eurofins) ) EUB0000271b CHRNA4; assay type: protein-complex assay; conditions: at 1 µM
[4] = biological target: Mitogen-activated protein kinase 6 (Homo sapiens) (UniProt Q16659); assay: Selectivity interaction (KinomeScan (DiscoverX)) EUB0000695a MAPK6; conditions: at 100 nM
Mitogen-activated protein kinase 6 (Homo sapiens), sequence (Q16659 whole entry): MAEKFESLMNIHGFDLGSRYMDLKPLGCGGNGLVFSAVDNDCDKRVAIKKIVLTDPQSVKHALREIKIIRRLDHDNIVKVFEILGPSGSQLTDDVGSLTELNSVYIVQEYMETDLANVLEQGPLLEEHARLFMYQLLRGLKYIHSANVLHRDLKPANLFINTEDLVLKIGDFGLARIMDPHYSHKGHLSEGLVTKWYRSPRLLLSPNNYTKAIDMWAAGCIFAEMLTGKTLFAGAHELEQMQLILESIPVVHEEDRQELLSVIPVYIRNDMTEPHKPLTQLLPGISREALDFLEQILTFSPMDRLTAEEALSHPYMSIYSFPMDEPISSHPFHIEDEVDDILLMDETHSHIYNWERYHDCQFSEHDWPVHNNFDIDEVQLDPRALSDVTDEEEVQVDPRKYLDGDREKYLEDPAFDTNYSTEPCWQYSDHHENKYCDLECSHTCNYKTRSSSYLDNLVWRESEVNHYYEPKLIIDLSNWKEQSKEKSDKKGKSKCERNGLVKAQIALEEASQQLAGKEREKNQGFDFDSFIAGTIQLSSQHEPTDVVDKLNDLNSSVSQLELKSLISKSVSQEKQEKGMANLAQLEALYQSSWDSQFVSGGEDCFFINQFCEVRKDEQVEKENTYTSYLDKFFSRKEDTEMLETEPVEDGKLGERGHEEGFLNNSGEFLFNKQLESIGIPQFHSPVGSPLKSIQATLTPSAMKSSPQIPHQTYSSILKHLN

[5] = biological target: MAP kinase-interacting serine/threonine-protein kinase 1 (Homo sapiens) (UniProt Q9BUB5); assay: Selectivity interaction (KinomeScan (DiscoverX)) EUB0001049a MKNK1; conditions: at 1 µM
MAP kinase-interacting serine/threonine-protein kinase 1 (Homo sapiens), sequence (Q9BUB5 whole entry, looked up): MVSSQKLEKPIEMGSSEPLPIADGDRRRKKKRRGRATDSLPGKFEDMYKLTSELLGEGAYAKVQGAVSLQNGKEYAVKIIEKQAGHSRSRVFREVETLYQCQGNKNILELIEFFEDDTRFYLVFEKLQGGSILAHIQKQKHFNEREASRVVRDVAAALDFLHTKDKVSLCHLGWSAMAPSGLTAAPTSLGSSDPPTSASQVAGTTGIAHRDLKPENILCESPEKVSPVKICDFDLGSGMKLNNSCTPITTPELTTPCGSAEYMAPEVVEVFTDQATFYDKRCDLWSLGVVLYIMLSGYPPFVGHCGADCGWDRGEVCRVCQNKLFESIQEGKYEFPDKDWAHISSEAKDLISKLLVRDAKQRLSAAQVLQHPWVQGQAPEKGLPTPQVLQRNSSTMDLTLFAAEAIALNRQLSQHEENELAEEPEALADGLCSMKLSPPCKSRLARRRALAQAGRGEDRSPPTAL

[6] = biological target: T2, Serine/threonine-protein kinase STK11 (Homo sapiens) (UniProt Q15831); assay: Selectivity interaction (Ambit KINOMEscan and KiNATiv profiling in Jurkat cells) EUB0000090b STK11; assay type: cell-based; conditions: at 1 µM
T2 sequence (whole entry): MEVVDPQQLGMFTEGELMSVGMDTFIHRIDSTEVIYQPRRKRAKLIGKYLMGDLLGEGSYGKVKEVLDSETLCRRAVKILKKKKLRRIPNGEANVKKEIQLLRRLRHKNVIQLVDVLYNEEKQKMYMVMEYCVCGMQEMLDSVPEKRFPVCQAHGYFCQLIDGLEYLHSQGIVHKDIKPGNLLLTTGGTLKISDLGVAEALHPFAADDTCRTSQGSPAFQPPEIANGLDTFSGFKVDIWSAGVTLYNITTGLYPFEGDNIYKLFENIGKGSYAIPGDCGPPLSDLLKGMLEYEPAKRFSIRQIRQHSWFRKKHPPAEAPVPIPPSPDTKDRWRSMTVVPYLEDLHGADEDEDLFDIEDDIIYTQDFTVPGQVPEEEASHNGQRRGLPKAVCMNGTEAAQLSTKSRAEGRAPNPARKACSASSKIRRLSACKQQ

[7] = biological target: Mitogen-activated protein kinase 6 (Homo sapiens) (UniProt Q16659); assay: Selectivity interaction (KinomeScan (DiscoverX)) EUB0000655a MAPK6; conditions: at 10 µM
[8] = biological target: Protein kinase C theta type (Homo sapiens, UniProt Q04759); assay: Selectivity interaction (KinomeScan (DiscoverX)) EUB0000045b PRKCQ
Protein kinase C theta type, sequence (Q04759 whole entry, looked up): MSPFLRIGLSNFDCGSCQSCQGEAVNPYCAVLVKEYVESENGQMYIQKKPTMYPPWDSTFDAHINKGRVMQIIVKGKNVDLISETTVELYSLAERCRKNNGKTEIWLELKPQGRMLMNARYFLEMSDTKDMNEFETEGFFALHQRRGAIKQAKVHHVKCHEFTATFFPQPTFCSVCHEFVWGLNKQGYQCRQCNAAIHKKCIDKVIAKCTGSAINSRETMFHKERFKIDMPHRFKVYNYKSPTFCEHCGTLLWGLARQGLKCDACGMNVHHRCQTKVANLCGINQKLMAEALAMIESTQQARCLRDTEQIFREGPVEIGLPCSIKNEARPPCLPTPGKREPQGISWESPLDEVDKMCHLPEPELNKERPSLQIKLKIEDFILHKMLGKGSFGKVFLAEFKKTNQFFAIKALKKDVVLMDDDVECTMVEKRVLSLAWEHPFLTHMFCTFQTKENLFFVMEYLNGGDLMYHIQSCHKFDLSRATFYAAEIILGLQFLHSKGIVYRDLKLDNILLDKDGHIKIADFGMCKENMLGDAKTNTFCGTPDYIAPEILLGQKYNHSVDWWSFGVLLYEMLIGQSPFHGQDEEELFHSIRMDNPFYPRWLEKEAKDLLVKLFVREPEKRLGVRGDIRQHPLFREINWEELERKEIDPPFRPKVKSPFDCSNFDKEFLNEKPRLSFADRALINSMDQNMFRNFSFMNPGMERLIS

[9] = biological target: Atypical kinase COQ8A, mitochondrial (Homo sapiens, UniProt Q8NI60); assay: Selectivity interaction (KinomeScan (DiscoverX)) EUB0001079a ADCK3; conditions: at 1 µM
Atypical kinase COQ8A, mitochondrial, sequence (Q8NI60 163-647 limits assumed): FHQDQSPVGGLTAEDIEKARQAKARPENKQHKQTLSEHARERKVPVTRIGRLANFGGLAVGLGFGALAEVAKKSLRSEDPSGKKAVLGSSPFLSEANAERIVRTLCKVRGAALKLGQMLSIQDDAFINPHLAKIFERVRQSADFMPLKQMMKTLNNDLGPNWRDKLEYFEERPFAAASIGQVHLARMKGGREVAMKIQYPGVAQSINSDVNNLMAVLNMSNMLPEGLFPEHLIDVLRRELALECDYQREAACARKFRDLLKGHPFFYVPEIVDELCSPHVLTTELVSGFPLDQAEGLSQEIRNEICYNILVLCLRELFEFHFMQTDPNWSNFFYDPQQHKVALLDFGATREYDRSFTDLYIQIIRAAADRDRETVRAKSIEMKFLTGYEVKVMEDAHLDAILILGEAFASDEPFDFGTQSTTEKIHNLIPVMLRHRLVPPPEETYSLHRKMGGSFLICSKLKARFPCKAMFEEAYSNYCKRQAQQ

[10] = biological target: Myosin light chain kinase family member 4 (Homo sapiens, UniProt Q86YV6); assay: Selectivity interaction (NanoBRET assay (HEK293T cells)) EUB0001550a MYLK4; assay type: cell-based, HEK-293T
Myosin light chain kinase family member 4, sequence (Q86YV6 whole entry): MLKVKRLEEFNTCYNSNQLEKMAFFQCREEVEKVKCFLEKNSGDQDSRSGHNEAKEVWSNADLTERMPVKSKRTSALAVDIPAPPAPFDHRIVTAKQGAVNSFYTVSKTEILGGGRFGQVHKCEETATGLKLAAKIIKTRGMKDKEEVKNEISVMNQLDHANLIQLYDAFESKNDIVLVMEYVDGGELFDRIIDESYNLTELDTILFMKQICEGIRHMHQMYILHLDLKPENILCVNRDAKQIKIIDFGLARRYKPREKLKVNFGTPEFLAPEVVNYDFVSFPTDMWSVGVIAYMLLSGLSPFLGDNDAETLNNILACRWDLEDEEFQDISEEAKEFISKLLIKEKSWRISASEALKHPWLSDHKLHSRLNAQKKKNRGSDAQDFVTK

[11] = biological target: SRSF protein kinase 2 (Homo sapiens) (UniProt P78362); conditions: at 10 µM
SRSF protein kinase 2 (Homo sapiens), sequence (P78362 whole entry, looked up): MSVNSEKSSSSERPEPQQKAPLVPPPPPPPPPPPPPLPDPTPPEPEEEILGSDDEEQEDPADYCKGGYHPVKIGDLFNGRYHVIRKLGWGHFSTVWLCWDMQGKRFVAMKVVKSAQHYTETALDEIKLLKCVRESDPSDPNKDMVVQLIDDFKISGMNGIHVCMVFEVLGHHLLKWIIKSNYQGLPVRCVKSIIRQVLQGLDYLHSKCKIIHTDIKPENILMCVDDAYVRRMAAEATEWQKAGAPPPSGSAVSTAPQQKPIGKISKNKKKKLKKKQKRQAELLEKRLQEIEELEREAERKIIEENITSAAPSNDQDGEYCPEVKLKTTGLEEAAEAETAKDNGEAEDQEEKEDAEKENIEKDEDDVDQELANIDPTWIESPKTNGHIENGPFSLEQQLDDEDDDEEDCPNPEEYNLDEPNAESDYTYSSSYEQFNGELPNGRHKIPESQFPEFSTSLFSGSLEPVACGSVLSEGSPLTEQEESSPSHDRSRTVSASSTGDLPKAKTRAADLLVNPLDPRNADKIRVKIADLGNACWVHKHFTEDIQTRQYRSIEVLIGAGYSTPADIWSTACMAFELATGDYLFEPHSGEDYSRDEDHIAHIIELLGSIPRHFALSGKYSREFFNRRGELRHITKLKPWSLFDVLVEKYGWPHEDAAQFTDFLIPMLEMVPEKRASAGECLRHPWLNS

[12] = biological target: T3, Receptor-interacting serine/threonine-protein kinase 4 (Homo sapiens) (UniProt P57078); assay: Selectivity interaction (KinomeScan (DiscoverX)) EUB0000618a RIPK4; conditions: at 10 µM
T3 sequence (whole entry): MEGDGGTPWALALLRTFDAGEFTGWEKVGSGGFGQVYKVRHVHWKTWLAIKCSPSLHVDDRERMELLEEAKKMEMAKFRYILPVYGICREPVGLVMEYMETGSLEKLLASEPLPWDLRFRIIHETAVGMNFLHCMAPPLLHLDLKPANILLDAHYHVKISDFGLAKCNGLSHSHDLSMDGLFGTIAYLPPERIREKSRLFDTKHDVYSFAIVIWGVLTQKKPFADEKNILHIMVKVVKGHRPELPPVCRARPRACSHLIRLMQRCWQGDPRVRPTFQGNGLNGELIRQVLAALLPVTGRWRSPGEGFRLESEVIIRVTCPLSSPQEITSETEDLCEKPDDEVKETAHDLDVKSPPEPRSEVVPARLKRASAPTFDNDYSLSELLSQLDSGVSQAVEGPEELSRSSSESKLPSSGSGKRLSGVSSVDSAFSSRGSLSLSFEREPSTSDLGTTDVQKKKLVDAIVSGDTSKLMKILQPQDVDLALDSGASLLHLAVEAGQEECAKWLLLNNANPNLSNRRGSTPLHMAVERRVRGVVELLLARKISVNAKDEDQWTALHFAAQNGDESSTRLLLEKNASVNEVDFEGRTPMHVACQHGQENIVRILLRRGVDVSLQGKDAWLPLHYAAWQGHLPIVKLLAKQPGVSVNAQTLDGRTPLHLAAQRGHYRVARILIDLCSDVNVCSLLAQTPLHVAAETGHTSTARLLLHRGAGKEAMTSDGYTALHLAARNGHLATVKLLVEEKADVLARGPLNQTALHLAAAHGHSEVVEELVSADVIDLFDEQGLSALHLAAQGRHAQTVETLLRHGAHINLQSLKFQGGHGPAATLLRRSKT

With `O=C(NOC[C@H](O)CO)c1ccc(F)c(F)c1Nc1ccc(I)cc1F` the % of control [1] was 87%.
With `CC[C@@H]1[C@H](F)C(=O)N[C@@H]1COc1nccc2cc(C(N)=O)c(OC)cc12` [ZIMLOVISERTIB] the % of inhibition [2] was -4.3%.
In the case of `Cc1cc(C)cc([C@@H]2c3cc(C)ccc3NC(=O)CN2C(=O)c2ccc(Br)s2)c1`, the % of inhibition [3] is reported as -18%.
With `Cc1cc(F)c(C(=O)Nc2cccc(-c3nncn3C(C)C)n2)cc1-n1cnc(C2CC2)c1` the % of control [4] was 81%.
`COc1cc(Nc2nc(C)cc(-c3cnn4nc(OC)ccc34)n2)cc(C(F)(F)F)c1` was tested, and the % of control [5] was 93%.
`CN(C)C/C=C/C(=O)Nc1ccc(C(=O)N2CCCC(Nc3ncc(Cl)c(-c4c[nH]c5ccccc45)n3)C2)cc1` (stereo not drawn) showed a % of control [6] of 94%.
For `CN(C)CCOc1ccc(-c2nc(-c3ccncc3)c(-c3ccc4c(c3)CC/C4=N\O)[nH]2)cc1`, the % of control [7] was 92%.
With `C=CC(=O)Nc1cc(-n2c(=O)ccc3cnc4ccc(-c5ccc(NS(C)(=O)=O)cc5)cc4c32)ccc1C` the % of control ([8]; at 1 µM) was 100% and the % of control ([8]; at 10 µM) was 76%.
Work on `Nc1cnc(N2CCc3cc(S(=O)(=O)Nc4c(F)cc(Cl)cc4F)cc(N4CCCC4=O)c32)nc1` [TP-020n] yielded a % of control [9] of 100%.
`CN(C)CC#Cc1ccc2[nH]c3c(c2c1)-c1nc(N)ncc1CCC3` gave an IC50 [10] of 270 nM.
`Cc1cc([C@@H](C)Nc2ccccc2C(=O)O)c2nc(N3CCOCC3)cc(=O)n2c1` [AZD-6482] showed a % of control [11] of 85%.
With `O[C@H]1CC[C@H](Nc2ncc3nc(Nc4c(F)cc(F)cc4F)n([C@H]4CCOC4)c3n2)CC1` the % of control [12] was 88%.
